Entries after “also recorded” stand apart in the source; their conditions may differ.
How the values were obtained:
Format in all cases: cell-based
[1] = biological target: T1, BRD4 (Homo sapiens, UniProt O60885); assay: CURE-PRO-mediated BRD4 degradation in HCT116 cells, WES (ProteinSimple); set-up: endogenous in cells
[2] = biological target: T1, BRD4; assay: Summary of BRD4 degradation by CURE-PRO pairs, estimated from Western Blot or WES; set-up: endogenous in cells
How it was run: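 Namalwa, Ramos, HeLa, MCF7, HT29 or HCT116 cells treated 24 h with compounds in DMSO; RIPA lysates analysed by Western blot (ECL) or capillary WES immunodetection. Check mark denotes 30% to 70% or higher protein degradation.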

[3] = biological target: T1, BRD4; assay: CURE-PRO-mediated BRD4 degradation in HeLa cells, Western blot; set-up: endogenous in cells; host or cells: HeLa; details: 24 h
How it was run: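 HeLa cells (2.5×10^6) treated 24 h with DMSO-solubilized compounds, degrader pairs combined 1:1, at 1 nM-1 μM, 1-10 μM, 10 μM or 10 and 100 μM each depending on series. RIPA lysates (10-20 μg protein) run on SDS-PAGE and immunoblotted for BRD4 with ECL detection.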

[4] = biological target: T1, BRD4; assay: BRD protein family degradation in HCT116 cells, Western blot: BRD4; set-up: endogenous in cells
Experimental: Namalwa, Ramosm HeLa, MCF7, or HT29 HCT116 cells (2.5-3×10^6) were treated for 24 hours with the indicated compounds solubilized in DMSO. The cells were washed in ice-cold PBS and were then lysed in RIPA lysis buffer (150 mM NaCl, 5 mM EDTA, 1% NP-40, 0.5% sodium deoxycholate, 0.1% SDS, 50 mM Tris, pH 8.0.) with Roche protease inhibitor complete cocktail and phosphatase inhibitors (10 mM sodium fluoride, 10 mM sodium pyrophosphate, 1 mM sodium orthovanadate and 20 mM β-glycerophosphate). The total protein concentrations were determined by Bradford Protein Assay (Pierce) and 10-20 μg of protein was loaded onto 4-15% Tris-Glycine gradient gels (Biorad). After standard gel electrophoresis, the separated proteins were transferred to PVDF membrane by wet transfer. The immunoblots were then blocked for 1 hour in 5% skim milk in TBST or 5% BSA in TBST, according to manufacturer's instructions, before an overnight incubation at 4° C. with indicated antibodies and membranes. Membranes were then incubated with the appropriate horseradish peroxidase-conjugated secondary antibodies (1:5,000 dilution) for 1 h at room temperature and the bands were visualized using the Clarity Max Western ECL Substrate (Biorad) and the ChemiDoc Imaging System (Biorad). Signal was detected with ECL Western Blotting Substrate (Pierce) and X-ray film processed with a Konica SRX-101 X-ray film processor or captured by Bio-Rad's Chemidoc Imaging system.
HCT116 cells (3×10^6) were treated for 24 hours with the compounds solubilized in DMSO. Compounds were added at 100 nM-10 μM each. Standardized protein samples were electrophoresed and imaged as described in the Immunoblotting section above. FIGS. 64 and 65 depict the concentration-dependence of CURE-PRO-mediated BRD2 and BRD3 degradation using MDM2 ligands.

SMILES | BRD4 degradation ([1]; 1:1 with MDM2 ligand 8313, HCT116, 24 h, 1 μM-10 μM each) | BRD4 degradation ([1]; 1:1 with MDM2 ligand 8314, HCT116, 24 h, 1 μM-10 μM each) | Degradation of BRD4, combination with CRBN ligand 8046 ([2]; Table 1, aryl-boronic acid BRD4 ligand + 8046) | Degradation of BRD4, combination with CRBN ligand 8066 ([2]; Table 1, aryl-boronic acid BRD4 ligand + 8066) | Degradation of BRD4, combination with MDM2 ligand 8313 ([2]; Table 2, aryl-boronic acid BRD4 ligand + 8313) | Degradation of BRD4, combination with MDM2 ligand 8314 ([2]; Table 2, aryl-boronic acid BRD4 ligand + 8314) | Degradation of BRD4, combination with VHL ligand 8305 ([2]; Table 3, aryl-boronic acid BRD4 ligand + 8305) | BRD4 degradation ([3]; co-treated 1:1 with CRBN ligand 8046, HeLa, 10 μM each) | BRD4 degradation ([3]; co-treated 1:1 with CRBN ligand 8066, HeLa, 10 μM each) | BRD4 degradation ([1]; 1:1 with MDM2 ligand 8310, HCT116, 24 h, 10 μM) | BRD4 degradation ([1]; 1:1 with MDM2 ligand 8312, HCT116, 24 h, 10 μM) | BRD4 degradation ([4]; 1:1 with MDM2 ligands 8310 and 8312 (each), HCT116, 24 h, 100 nM-10 μM) | selectivity of degradation among BRD2, BRD3 and BRD4 ([4]; with MDM2 ligands 8310 and 8312, HCT116, Western blot) | Degradation of BRD4, combination with CRBN ligand 8048 ([2]; Table 4, aromatic 1,2-diol BRD4 ligand + 8048) | Degradation of BRD4, combination with MDM2 ligand 8310 ([2]; Table 5, aromatic 1,2-diol BRD4 ligand + 8310) | Degradation of BRD4, combination with MDM2 ligand 8312 ([2]; Table 5, aromatic 1,2-diol BRD4 ligand + 8312) | BRD4 degradation ([3]; BRD4 monomer alone, HeLa, 1-10 μM) | BRD4 degradation ([3]; co-treated 1:1 with CRBN ligand 8048, HeLa, 1-10 μM each) | BRD4 degradation ([3]; co-treated 1:1 with CRBN ligand 8049, HeLa, 1-10 μM each)
CCNC(=O)C[C@@H]1N=C(c2ccc(Cl)cc2)c2cc(OCCCCC(=O)Nc3cccc(B(O)O)c3)ccc2-n2c(C)nnc21 [BRD-E20, (3-(5-(((4S)-6-(4-chlorophenyl)-4-(2-(ethylamino)-2-oxoethyl)-1-methyl-4H-benzo[f][1,2,4]triazolo[4,3-a][1,4]diazepin-8-yl)oxy)pentanamido)phenyl)boronic acid] | had no effect on BRD4 protein levels | caused partial loss of the BRD4 protein; also recorded: Degradation is observed | √ (A black check mark indicates efficacy of 30% to 70% or higher protein degradation) | √ (A black check mark indicates efficacy of 30% to 70% or higher protein degradation) | √ (A black check mark indicates efficacy of 30% to 70% or higher protein degradation) | √ (A black check mark indicates efficacy of 30% to 70% or higher protein degradation) | √ (A black check mark indicates efficacy of 30% to 70% or higher protein degradation) | causes degradation of BRD4; also recorded: Degradation is noted | causes degradation of BRD4; also recorded: Degradation is noted | – | – | – | – | – | – | – | – | – | –
CCNC(=O)C[C@@H]1N=C(c2ccc(Cl)cc2)c2cc(OCCOCCNC(=O)c3cccc(O)c3O)ccc2-n2c(C)nnc21 [BRD-N39, N-(2-(2-(((4S)-6-(4-chlorophenyl)-4-(2-(ethylamino)-2-oxoethyl)-1-methyl-4H-benzo[f][1,2,4]triazolo[4,3-a][1,4]diazepin-8-yl)oxy)ethoxy)ethyl)-2,3-dihydroxybenzamide] | – | – | – | – | – | – | – | – | – | caused BRD4 degradation | caused BRD4 degradation | caused BRD4 degradation; also recorded: Degradation is evident | some selectivity for BRD4 over BRD2 and BRD3 is noted | √ (A black check mark indicates efficacy of 30% to 70% or higher protein degradation) | √ (A black check mark indicates efficacy of 30% to 70% or higher protein degradation) | √ (A black check mark indicates efficacy of 30% to 70% or higher protein degradation) | there is no degradation of BRD4 | causes degradation of BRD4; also recorded: Degradation is noted | no evidence of BRD4 degradation
